From article PMC3155816 (Journal of medicinal chemistry, 2011)
In brackets after ≈: the same amount, converted by molar mass. Several values for one entry are separate records, joined by “and”; a condition that tells them apart may be missing. Equal values may be shown once.

Tests used:
[1] = test system: Vaccinia virus (WR strain); test: microbe, parasite or virus in culture; assay type: cell-based; conditions: Orthopoxvirus vaccinia, BSC-1, read-out: Plaque Reduction EC50
[2] = biological target: vaccinia virus D4 (Vaccinia virus, UniProt P04303); assay type: binding
[3] = Cytotoxicity by LDH release; assay type: cell-based; conditions: African green monkey, BSC-1 cells
[4] = Solubility in PBS by chemiluminescence of total nitrogen; assay type: physicochemical
[5] = biological target: vaccinia E9 DNA polymerase with A20 and D4 (processivity complex) (Vaccinia virus, UniProt P04303); test: biochemical

SMILES | EC50 [1] [µM] | solubility [4] | also measured
Cc1ccc2oc(-c3ccc(Cl)cc3)c(O)c(=O)c2c1 [Compound 5] | ≥ 200 |  | 
O=C1c2ccccc2-c2onc3c(NCCO)cc(NC4CCCCC4)c1c23 [Compound 9, 10-(cyclohexylamino)-12-[(2-hydroxyethyl)amino]-15-oxa-14-azatetracyclohexadeca-1(16),2,4,6,9,11,13-heptaen-8-one] | 8.1 | 1.4 µg/mL and 3.6 µM | Tm [2]: 51.4 ± 9.1 °C; ΔTm [2]: 13.1 °C; CC50 at 20 h [3]: 127 µM; IC50 [5]: 34.1 µM
Oc1ccc(NCc2ccccc2OCc2ccccc2)cc1 [Compound 10, 4-({[2-(benzyloxy)phenyl]methyl}amino)phenol] | 9.8 | 3.5 µM (≈ 1.07 µg/mL) | 
COc1ccc(Nc2nc(Nc3ccc(OC)cc3OC)nc(N3CCOCC3)n2)c(OC)c1 [Compound 12] | ≥ 200 |  | 
Cn1c(=O)n(C)c2cc(NS(=O)(=O)c3ccc(C(C)(C)C)cc3)c(NCc3ccccc3)cc21 [Compound 14, N-[6-(benzylamino)-1,3-dimethyl-2-oxo-2,3-dihydro-1H-1,3-benzodiazol-5-yl]-4-tert-butylbenzene-1-sulfonamide] |  | 1.9 µM (≈ 0.909 µg/mL) | 
Cc1cc2n(n1)C(c1cc(C(C)(C)C)c(O)cc1O)Nc1ccccc1-2 (stereo not shown) [Compound 15, 4-tert-butyl-6-{2-methyl-5H,6H-pyrazolo[1,5-c]quinazolin-5-yl}benzene-1,3-diol] | 23.3 | 54.7 µM (≈ 19.1 µg/mL) | 
COc1ccc(C)cc1N(CC(=O)N1CCC(C)CC1)S(=O)(=O)c1ccc(C)cc1 [Compound 26] | ≥ 200 |  | 
COc1cc(-c2nc(-c3ccccc3)c(-c3ccc(Br)cc3)[nH]2)cc(OC)c1O [Compound 27, 4-[5-(4-bromophenyl)-4-phenyl-1H-imidazol-2-yl]-2,6-dimethoxyphenol] | 22.4 | 3.2 µM (≈ 1.44 µg/mL) | 
